{"source": "ChEMBL document CHEMBL5465560", "about": "“Selectivity Literature for EUbOPEN Chemogenomic Library” (2024)", "key": {"[1]": {"target": "T1, Dual specificity protein kinase CLK3 (Homo sapiens, UniProt P49761)", "T1 sequence (P49761 whole entry, looked up)": "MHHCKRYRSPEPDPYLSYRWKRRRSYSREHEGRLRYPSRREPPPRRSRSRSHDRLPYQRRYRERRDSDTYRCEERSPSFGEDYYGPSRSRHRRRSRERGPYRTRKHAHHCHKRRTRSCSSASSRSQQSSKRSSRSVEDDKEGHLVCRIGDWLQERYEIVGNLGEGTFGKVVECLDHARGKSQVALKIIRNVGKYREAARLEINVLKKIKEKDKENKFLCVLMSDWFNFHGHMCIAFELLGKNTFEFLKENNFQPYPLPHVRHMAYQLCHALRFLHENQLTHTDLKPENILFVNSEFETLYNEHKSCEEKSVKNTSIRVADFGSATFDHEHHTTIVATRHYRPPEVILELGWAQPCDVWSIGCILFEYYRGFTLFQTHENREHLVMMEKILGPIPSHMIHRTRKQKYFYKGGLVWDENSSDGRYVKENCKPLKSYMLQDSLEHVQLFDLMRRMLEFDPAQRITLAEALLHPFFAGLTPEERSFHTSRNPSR", "assay": "Selectivity interaction (KinomeScan (DiscoverX)) EUB0001049a CLK3", "conditions": "at 1 µM"}, "[2]": {"target": "T2, Mitogen-activated protein kinase 12 (Homo sapiens) (UniProt P53778)", "T2 sequence (whole entry)": "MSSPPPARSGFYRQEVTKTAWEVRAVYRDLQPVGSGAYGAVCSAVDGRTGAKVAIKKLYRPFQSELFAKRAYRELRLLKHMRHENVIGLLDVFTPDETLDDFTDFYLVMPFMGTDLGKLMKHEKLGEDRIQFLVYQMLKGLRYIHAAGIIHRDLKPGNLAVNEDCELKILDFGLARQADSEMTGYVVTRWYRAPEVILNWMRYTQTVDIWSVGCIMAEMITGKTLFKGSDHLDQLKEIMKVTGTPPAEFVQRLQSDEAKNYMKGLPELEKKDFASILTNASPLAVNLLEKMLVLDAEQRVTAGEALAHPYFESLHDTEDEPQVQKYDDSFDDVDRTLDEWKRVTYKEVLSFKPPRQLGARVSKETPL", "assay": "Selectivity interaction (KinomeScan (DiscoverX)) EUB0000666a MAPK12", "conditions": "at 10 µM"}, "[3]": {"target": "Sodium channel protein type 2 subunit alpha (Homo sapiens) (UniProt Q99250)", "sequence (Q99250 whole entry, looked up)": "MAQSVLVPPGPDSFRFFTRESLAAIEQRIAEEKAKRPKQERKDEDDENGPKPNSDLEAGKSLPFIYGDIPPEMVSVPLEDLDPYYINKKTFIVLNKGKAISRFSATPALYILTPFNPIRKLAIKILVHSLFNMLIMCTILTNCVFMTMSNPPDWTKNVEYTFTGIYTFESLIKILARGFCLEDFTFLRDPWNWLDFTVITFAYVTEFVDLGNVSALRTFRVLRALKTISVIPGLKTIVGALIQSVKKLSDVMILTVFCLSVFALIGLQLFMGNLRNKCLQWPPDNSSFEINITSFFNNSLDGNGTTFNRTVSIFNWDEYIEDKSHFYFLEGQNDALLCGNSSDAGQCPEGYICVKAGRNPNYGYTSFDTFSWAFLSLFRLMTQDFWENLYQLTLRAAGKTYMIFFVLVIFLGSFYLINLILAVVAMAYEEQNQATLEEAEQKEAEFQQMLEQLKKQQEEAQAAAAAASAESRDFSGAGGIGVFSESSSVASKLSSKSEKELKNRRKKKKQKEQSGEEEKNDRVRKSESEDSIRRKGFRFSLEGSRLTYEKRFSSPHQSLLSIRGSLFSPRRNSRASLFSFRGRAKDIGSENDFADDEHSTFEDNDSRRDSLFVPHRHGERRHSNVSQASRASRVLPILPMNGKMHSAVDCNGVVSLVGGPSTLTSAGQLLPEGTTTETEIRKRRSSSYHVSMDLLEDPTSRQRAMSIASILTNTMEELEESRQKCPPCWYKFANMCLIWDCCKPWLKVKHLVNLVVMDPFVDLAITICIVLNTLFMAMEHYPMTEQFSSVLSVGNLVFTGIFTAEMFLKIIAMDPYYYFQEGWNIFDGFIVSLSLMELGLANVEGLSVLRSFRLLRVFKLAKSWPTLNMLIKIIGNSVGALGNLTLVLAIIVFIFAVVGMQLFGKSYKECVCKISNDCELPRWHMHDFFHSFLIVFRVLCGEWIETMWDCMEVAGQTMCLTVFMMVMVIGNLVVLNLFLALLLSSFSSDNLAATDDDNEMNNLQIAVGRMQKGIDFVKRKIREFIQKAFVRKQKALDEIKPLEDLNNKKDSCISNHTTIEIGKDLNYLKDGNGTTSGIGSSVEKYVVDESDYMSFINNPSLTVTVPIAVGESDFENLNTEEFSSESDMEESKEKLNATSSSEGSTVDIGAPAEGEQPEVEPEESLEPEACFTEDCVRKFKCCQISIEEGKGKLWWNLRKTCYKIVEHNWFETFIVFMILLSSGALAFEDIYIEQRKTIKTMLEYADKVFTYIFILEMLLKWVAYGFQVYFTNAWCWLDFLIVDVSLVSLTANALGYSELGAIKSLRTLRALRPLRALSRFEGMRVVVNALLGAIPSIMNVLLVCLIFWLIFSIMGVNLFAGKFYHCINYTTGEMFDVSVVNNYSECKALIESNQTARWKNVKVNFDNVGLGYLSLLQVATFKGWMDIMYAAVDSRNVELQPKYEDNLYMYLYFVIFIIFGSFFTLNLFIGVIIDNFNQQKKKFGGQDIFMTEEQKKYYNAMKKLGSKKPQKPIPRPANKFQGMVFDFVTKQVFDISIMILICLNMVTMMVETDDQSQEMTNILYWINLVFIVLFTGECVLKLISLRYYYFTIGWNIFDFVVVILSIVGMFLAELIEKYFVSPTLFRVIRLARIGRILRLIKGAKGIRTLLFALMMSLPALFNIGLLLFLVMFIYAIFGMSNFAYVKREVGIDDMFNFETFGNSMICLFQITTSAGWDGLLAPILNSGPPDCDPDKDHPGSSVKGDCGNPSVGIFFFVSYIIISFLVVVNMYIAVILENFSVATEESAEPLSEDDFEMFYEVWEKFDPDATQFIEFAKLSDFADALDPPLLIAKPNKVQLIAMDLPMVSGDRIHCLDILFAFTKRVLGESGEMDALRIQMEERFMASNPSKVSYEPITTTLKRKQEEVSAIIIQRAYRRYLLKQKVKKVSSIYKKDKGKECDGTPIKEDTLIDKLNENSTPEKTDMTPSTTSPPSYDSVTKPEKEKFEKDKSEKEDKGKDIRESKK", "assay": "Selectivity interaction (Eurofins CEREP Diversity Profile (receptors and ion channels)) EUB0000279b SCN2A", "conditions": "at 10 µM"}, "[4]": {"target": "BDNF/NT-3 growth factors receptor (Homo sapiens) (UniProt Q16620)", "sequence (Q16620 32-822 limits assumed)": "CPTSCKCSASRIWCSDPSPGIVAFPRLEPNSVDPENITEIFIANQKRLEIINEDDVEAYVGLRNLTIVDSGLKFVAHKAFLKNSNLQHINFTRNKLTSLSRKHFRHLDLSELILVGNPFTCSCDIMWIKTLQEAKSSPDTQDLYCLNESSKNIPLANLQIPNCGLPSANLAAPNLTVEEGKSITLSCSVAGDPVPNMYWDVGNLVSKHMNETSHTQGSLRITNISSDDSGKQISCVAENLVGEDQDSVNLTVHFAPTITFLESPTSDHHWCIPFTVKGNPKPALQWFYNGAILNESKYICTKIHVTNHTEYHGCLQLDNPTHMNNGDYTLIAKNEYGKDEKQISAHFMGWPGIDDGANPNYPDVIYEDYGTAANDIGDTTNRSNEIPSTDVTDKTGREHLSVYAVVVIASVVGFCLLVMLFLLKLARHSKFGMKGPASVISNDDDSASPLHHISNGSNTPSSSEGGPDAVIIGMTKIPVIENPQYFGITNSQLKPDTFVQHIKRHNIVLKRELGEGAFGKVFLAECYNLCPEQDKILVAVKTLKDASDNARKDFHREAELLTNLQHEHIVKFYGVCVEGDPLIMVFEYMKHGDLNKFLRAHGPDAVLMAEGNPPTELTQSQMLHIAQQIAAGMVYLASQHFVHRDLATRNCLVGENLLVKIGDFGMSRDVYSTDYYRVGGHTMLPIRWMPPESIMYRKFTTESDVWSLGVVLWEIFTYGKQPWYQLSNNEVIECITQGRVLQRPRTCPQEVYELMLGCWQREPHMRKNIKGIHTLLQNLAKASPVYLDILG", "assay": "Selectivity interaction (Kinase panel (Invitrogen)) EUB0000639a NTRK2", "conditions": "at 200 nM"}, "[5]": {"system": "Serine/threonine-protein kinase B-raf (Homo sapiens), P15056 [V600E]", "sequence (P15056 whole entry V600E)": "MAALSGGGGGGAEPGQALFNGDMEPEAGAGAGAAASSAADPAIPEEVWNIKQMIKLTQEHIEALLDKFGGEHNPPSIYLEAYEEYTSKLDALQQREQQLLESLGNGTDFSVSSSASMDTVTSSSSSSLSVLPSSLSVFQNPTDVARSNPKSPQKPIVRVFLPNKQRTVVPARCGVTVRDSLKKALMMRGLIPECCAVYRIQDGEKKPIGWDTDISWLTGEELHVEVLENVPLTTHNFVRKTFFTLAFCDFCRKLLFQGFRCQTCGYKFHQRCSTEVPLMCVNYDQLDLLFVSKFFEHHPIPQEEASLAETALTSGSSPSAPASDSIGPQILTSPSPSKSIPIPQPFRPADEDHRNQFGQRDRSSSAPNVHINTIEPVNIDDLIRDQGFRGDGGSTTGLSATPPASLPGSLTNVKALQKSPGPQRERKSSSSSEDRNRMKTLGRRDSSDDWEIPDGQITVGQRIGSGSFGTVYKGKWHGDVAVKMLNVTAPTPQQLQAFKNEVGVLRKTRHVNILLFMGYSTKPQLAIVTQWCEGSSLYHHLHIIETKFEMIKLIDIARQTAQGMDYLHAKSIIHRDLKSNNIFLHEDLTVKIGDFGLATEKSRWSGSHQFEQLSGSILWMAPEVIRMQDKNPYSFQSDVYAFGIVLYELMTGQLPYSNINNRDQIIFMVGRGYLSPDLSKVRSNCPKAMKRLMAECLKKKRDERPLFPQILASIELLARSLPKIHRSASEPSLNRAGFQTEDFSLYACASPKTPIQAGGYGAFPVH", "assay": "(§1) Selectivity interaction (KinomeScan (DiscoverX)) EUB0000045b BRAF"}, "[6]": {"target": "Serine/threonine-protein kinase B-raf (Homo sapiens) (UniProt P15056)", "sequence (P15056 whole entry)": "as the sequence (P15056 whole entry V600E) above, with E600V counted along it", "assay": "as §1"}, "[7]": {"target": "T3, Bone morphogenetic protein receptor type-2 (Homo sapiens) (UniProt Q13873)", "T3 sequence (whole entry)": "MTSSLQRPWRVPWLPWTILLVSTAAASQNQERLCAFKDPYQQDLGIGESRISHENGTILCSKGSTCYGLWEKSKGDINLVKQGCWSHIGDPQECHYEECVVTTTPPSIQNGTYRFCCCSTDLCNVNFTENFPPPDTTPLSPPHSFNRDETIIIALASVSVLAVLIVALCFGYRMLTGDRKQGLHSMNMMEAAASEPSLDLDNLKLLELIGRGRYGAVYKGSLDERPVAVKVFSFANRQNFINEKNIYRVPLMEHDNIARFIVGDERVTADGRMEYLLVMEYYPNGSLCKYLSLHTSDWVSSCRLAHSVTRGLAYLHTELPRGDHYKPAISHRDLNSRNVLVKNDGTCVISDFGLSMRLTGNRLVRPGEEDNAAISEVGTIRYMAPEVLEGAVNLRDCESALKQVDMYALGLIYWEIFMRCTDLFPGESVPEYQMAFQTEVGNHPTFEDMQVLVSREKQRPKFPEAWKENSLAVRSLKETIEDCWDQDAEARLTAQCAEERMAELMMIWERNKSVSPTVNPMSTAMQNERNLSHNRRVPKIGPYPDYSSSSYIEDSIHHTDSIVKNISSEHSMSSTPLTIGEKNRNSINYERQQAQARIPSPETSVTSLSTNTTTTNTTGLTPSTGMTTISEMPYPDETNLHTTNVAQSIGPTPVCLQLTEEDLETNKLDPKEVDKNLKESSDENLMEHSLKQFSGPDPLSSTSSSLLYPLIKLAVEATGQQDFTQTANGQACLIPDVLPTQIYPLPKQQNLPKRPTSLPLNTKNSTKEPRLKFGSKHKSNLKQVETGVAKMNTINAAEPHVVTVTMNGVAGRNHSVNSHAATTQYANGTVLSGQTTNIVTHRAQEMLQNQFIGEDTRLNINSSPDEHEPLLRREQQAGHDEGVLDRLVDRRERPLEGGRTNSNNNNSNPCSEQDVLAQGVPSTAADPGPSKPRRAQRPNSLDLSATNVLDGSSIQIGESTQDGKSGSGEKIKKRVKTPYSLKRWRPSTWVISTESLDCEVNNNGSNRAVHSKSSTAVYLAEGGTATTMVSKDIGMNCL", "assay": "Selectivity interaction (KinomeScan (DiscoverX)) EUB0000618a BMPR2", "conditions": "at 10 µM"}, "[8]": {"target": "STE20-like serine/threonine-protein kinase (Homo sapiens, UniProt Q9H2G2)", "assay": "Selectivity interaction (KinomeScan (DiscoverX)) EUB0001619a SLK", "conditions": "at 1 µM"}, "[9]": {"target": "T1, Dual specificity protein kinase CLK3", "assay": "Selectivity interaction (KinomeScan (DiscoverX)) EUB0000655a CLK3", "conditions": "at 10 µM"}, "[10]": {"target": "Death-associated protein kinase 1 (Homo sapiens, UniProt P53355)", "assay": "Selectivity interaction (KinomeScan (DiscoverX)) EUB0000607a DAPK1", "conditions": "at 10 µM"}, "[11]": {"target": "Ribosomal protein S6 kinase alpha-1 (Homo sapiens, UniProt Q15418)", "sequence (Q15418 whole entry)": "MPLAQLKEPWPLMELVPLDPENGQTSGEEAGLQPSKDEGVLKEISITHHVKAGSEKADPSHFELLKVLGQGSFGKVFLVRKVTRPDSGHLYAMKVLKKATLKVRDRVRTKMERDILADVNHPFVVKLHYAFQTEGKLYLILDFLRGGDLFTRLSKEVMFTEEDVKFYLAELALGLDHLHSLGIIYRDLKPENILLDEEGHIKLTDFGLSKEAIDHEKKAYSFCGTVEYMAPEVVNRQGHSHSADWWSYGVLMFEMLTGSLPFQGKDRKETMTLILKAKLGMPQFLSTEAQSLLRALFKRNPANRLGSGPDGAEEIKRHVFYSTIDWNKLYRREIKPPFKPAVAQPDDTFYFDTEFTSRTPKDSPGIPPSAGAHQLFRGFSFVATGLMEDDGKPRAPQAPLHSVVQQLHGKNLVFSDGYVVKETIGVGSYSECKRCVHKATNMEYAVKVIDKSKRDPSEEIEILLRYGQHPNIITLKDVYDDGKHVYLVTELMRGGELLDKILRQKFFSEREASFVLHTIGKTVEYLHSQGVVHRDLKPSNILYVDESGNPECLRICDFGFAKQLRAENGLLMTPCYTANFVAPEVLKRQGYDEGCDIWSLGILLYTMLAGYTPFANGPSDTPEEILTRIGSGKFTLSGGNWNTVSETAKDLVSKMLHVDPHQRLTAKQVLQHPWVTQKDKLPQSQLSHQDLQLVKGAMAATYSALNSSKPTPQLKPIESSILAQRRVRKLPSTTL", "assay": "Selectivity interaction (SelectScreen profiling (Invitrogen)) EUB0000607a RPS6KA1", "conditions": "at 2 µM"}}}
{"smiles": "COc1cc(Nc2nc(C)cc(-c3cnn4nc(OC)ccc34)n2)cc(C(F)(F)F)c1", "values": [{"measurement": "% of control", "setting": "[1]", "value": 80, "unit": "%"}]}
{"smiles": "O=C(NOC[C@H](O)CO)c1ccc(F)c(F)c1Nc1ccc(I)cc1F", "values": [{"measurement": "% of control", "setting": "[2]", "value": 100, "unit": "%"}]}
{"smiles": "CC(=O)c1cc(-c2ccccc2OCC2CC2)c2ncccn12", "values": [{"measurement": "% of control", "setting": "[3]", "value": 100, "unit": "%"}]}
{"smiles": "CC[C@@H]1[C@H](F)C(=O)N[C@@H]1COc1nccc2cc(C(N)=O)c(OC)cc12", "note": "[ZIMLOVISERTIB]", "values": [{"measurement": "% of inhibition", "setting": "[4]", "value": 15.8, "unit": "%"}]}
{"smiles": "C=CC(=O)Nc1cc(-n2c(=O)ccc3cnc4ccc(-c5ccc(NS(C)(=O)=O)cc5)cc4c32)ccc1C", "values": [{"measurement": "% of control", "setting": "[5]; at 1 µM", "value": 100, "unit": "%"}, {"measurement": "% of control", "setting": "[5]; at 10 µM", "value": 100, "unit": "%"}, {"measurement": "% of control", "setting": "[6]; at 1 µM", "value": 100, "unit": "%"}, {"measurement": "% of control", "setting": "[6]; at 10 µM", "value": 100, "unit": "%"}]}
{"smiles": "O[C@H]1CC[C@H](Nc2ncc3nc(Nc4c(F)cc(F)cc4F)n([C@H]4CCOC4)c3n2)CC1", "values": [{"measurement": "% of control", "setting": "[7]", "value": 78, "unit": "%"}]}
{"smiles": "N#Cc1cccc(-c2c[nH]c3ncnc(N4CCOCC4)c23)c1", "values": [{"measurement": "% of control", "setting": "[8]", "value": 25, "unit": "%"}]}
{"smiles": "CN(C)CCOc1ccc(-c2nc(-c3ccncc3)c(-c3ccc4c(c3)CC/C4=N\\O)[nH]2)cc1", "values": [{"measurement": "% of control", "setting": "[9]", "value": 98, "unit": "%"}]}
{"smiles": "CNC(=O)Nc1ccc(-c2nc(N3CC4CCC(C3)O4)c3cnn(C4CCC5(CC4)OCCO5)c3n2)cc1", "values": [{"measurement": "% of control", "setting": "[10]", "value": 12, "unit": "%"}, {"measurement": "% of inhibition", "setting": "[11]", "value": 4, "unit": "%"}]}
